Assay results from ChEMBL document CHEMBL3751852, “New mannose derivatives: The tetrazole analogue of mannose-6-phosphate as angiogenesis inhibitor” (2016).
The source made the active and inactive calls. The rule behind the calls is not given here.

Test system: Chorioallantoic membrane
Experiment: Antiangiogenic activity in chicken chorioallantoic membrane assessed as area of neovascularization at 60 mg/ml administered on 7th embryonic day incubated for 4 days by microscopy (reference value: 100%)
Type: functional, Gallus gallus

CO[C@H]1O[C@H](CCC(=O)O)[C@@H](O)[C@H](O)[C@@H]1O
Activity: 70%

CO[C@H]1O[C@H](COP(=O)(O)O)[C@@H](O)[C@H](O)[C@@H]1O
Activity: 43%

CO[C@H]1O[C@H](CS(=O)(=O)c2ccccc2)[C@@H](O)[C@H](O)[C@@H]1O
Activity (Gallus gallus): inactive

CO[C@H]1O[C@H](CCP(=O)(O)O)[C@@H](O)[C@H](O)[C@@H]1O
Activity: 138%

CO[C@H]1O[C@H](Cc2nnn[nH]2)[C@@H](O)[C@H](O)[C@@H]1O
Activity: 68%
